From ChEMBL document CHEMBL4000156 (Eur J Med Chem, 2016)

How the values were obtained:
[1] = Antioxidant activity assessed as DPPH radical scavenging activity incubated for 30 mins under dark conditions by spectrophotometry; assay type: functional
[2] = target: Xanthine dehydrogenase/oxidase (Homo sapiens, UniProt P47989); assay: Inhibition of Xanthine oxidase (unknown origin) using xanthine as substrate preincubated for 3 mins followed by substrate addition measured every 15 secs for 7 mins by spectrophotometry
Xanthine dehydrogenase/oxidase, sequence (P47989 whole entry): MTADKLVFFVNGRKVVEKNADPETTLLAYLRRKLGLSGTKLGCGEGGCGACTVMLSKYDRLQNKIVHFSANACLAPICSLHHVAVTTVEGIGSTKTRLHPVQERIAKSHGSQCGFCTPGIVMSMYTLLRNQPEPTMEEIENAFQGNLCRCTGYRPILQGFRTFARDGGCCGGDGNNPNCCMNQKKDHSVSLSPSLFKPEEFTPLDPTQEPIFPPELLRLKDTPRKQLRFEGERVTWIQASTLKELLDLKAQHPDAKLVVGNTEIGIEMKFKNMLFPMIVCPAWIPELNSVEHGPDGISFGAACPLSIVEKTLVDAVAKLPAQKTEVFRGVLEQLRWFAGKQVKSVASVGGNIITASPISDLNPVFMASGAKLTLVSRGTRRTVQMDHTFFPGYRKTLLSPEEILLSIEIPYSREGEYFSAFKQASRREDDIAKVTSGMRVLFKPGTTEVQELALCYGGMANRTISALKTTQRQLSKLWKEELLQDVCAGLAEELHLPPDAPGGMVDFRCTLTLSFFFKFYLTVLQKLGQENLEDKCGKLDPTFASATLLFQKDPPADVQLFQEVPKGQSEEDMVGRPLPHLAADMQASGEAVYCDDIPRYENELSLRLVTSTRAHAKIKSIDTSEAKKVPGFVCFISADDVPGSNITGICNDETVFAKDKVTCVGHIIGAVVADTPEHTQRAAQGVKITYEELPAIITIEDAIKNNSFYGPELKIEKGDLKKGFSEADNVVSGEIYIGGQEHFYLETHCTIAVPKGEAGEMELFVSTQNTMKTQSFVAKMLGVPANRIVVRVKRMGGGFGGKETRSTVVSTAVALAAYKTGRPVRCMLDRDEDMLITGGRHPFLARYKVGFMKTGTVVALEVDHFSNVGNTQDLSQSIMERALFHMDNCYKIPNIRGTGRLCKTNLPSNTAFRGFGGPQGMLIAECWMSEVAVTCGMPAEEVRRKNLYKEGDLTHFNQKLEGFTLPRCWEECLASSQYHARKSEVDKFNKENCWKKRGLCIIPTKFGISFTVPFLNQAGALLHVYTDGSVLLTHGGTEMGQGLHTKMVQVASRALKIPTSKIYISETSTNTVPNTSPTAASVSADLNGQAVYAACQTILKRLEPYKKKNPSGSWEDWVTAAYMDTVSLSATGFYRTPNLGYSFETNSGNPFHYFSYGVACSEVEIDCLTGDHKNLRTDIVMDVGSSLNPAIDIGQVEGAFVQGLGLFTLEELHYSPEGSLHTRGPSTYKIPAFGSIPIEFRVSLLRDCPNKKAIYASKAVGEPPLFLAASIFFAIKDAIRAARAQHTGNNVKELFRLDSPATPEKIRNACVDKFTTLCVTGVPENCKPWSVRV

[3] = test system: RAW264.7; assay: Antioxidant activity in LPS induced mouse RAW264.7 cells assessed as superoxide anion scavenging activity at 10 uM after 24 hrs by HE probe based HPLC-MS analysis relative to control; assay type: functional

IC50 [1] [µM]	IC50 [2] [µM]	Compound	Activity [3] [%]
> 100	> 60	COC(=O)[C@@H](Cc1c[nH]c2ccccc12)NC(=O)/C=C/c1ccc(OC)c2oc(-c3ccc(OC)c(OC)c3)cc12	
		C[C@H](NC(=O)/C=C/c1ccc(O)c2oc(-c3ccc(O)c(O)c3)cc12)C(=O)O	41.65
> 100	> 60	COC(=O)[C@H](Cc1ccccc1)NC(=O)/C=C/c1ccc(OC)c2oc(-c3ccc(OC)c(OC)c3)cc12	
		O=C(/C=C/c1ccc(O)c2oc(-c3ccc(O)c(O)c3)cc12)N[C@@H](Cc1ccccc1)C(=O)O	81.27
6.87	8.26	O=C(/C=C/c1ccc(O)c2oc(-c3ccc(O)c(O)c3)cc12)O[C@H](Cc1ccc(O)c(O)c1)C(=O)O	37.82
		VITAMIN E	53.2
		COC(=O)[C@H](C)NC(=O)/C=C/c1ccc(O)c2oc(-c3ccc(O)c(O)c3)cc12	60.54
		COC(=O)[C@H](Cc1ccc(O)c(O)c1)NC(=O)/C=C/c1ccc(O)c2oc(-c3ccc(O)c(O)c3)cc12	78.59
		COC(=O)[C@@H](Cc1ccc(O)c(O)c1)NC(=O)/C=C/c1ccc(O)c2oc(-c3ccc(O)c(O)c3)cc12	74.16
		O=C(/C=C/c1ccc(O)c2oc(-c3ccc(O)c(O)c3)cc12)N[C@@H](Cc1ccc(O)cc1)C(=O)O	83.41
		O=C(/C=C/c1ccc(O)c2oc(-c3ccc(O)c(O)c3)cc12)N[C@H](Cc1ccc(O)c(O)c1)C(=O)O	80.81
> 100	> 60	COC(=O)[C@H](C)NC(=O)/C=C/c1ccc(OC)c2oc(-c3ccc(OC)c(OC)c3)cc12	
